Values quoted from earlier work, collected in patent EP1017727B1, “COMPOSITION AND PHARMACEUTICAL PREPARATION CONTAINING SAME FOR THE TREATMENT OF HERPES AND RELATED VIRAL INFECTIONS” (priority 1997, dated 1999).
Values after ≈ are worked out from the molar mass of the structure shown.

Tested on: HSV-1

Compound | IC50 against HSV-1 [µg/mL]
O=Cc1cc(O)c(O)c(O)c1 [gallic aldehyde] | 12.5 (≈ 81.1 µM)
geponin | 25
